Data as given in ChEMBL document CHEMBL2073885, “Azelastine and flezelastine as reversing agents of multidrug resistance: pharmacological and molecular studies” (Biochem Pharmacol, 1995).

How the values were obtained:
Type in all cases: functional, cell-based
[1] = molecular target: T1, ATP-dependent translocase ABCB1 (Rattus norvegicus, UniProt P43245); test: TP_TRANSPORTER: increase in Doxorubicin intracellular accumulation (Doxorubicin: 17.2 uM, Azelastine: 10 uM) in C6 1V cells
[2] = molecular target: Multidrug resistance protein 1a (Rattus norvegicus) (UniProt Q6PSM0); test: TP_TRANSPORTER: increase in Doxorubicin intracellular accumulation (Doxorubicin: 17.2 uM, Azelastine: 30 uM) in C6 0.5 cells
[3] = molecular target: T1, ATP-dependent translocase ABCB1; test: TP_TRANSPORTER: increase in Doxorubicin intracellular accumulation (Doxorubicin: 17.2 uM, Flezelastine: 3 uM) in C6 1V cells
[4] = molecular target: Multidrug resistance protein 1a (Rattus norvegicus) (UniProt Q6PSM0); test: TP_TRANSPORTER: increase in Doxorubicin intracellular accumulation (Doxorubicin: 17.2 uM, Flezelastine: 10 uM) in C6 0.5 cells

T1 sequence (P43245 whole entry): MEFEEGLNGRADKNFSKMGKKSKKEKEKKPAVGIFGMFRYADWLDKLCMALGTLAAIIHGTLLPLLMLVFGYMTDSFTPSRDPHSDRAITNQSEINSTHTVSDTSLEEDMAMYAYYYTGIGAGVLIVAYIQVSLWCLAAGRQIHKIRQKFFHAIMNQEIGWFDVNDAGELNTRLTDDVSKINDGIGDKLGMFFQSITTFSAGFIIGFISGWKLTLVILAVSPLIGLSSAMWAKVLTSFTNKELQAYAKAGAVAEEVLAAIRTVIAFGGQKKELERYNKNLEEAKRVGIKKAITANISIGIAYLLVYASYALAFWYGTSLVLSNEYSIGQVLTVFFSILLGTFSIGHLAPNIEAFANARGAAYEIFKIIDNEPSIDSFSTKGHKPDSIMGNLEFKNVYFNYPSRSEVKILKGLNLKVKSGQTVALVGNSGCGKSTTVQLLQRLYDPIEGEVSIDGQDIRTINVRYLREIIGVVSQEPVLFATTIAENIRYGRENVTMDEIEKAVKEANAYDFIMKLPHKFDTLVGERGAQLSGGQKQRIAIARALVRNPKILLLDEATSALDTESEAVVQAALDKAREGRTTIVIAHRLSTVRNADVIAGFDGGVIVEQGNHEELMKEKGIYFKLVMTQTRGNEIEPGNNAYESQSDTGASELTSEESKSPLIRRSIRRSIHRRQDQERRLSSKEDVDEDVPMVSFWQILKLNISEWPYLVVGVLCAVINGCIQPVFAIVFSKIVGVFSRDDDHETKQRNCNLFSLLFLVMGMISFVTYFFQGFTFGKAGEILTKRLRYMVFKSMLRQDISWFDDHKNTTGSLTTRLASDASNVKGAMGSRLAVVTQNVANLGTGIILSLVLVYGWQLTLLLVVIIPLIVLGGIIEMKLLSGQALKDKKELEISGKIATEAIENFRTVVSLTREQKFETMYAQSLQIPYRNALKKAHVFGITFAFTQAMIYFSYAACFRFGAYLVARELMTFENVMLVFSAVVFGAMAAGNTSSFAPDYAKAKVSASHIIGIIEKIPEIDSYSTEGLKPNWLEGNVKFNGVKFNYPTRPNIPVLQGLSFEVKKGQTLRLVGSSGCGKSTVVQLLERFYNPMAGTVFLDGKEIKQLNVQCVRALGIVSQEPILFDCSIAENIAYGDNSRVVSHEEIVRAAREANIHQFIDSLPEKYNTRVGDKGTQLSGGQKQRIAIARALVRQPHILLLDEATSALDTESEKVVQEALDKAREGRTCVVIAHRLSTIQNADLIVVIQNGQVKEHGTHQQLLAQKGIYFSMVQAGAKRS
Chain of Multidrug resistance protein 1a (Rattus norvegicus) (Q6PSM0 as listed by the source): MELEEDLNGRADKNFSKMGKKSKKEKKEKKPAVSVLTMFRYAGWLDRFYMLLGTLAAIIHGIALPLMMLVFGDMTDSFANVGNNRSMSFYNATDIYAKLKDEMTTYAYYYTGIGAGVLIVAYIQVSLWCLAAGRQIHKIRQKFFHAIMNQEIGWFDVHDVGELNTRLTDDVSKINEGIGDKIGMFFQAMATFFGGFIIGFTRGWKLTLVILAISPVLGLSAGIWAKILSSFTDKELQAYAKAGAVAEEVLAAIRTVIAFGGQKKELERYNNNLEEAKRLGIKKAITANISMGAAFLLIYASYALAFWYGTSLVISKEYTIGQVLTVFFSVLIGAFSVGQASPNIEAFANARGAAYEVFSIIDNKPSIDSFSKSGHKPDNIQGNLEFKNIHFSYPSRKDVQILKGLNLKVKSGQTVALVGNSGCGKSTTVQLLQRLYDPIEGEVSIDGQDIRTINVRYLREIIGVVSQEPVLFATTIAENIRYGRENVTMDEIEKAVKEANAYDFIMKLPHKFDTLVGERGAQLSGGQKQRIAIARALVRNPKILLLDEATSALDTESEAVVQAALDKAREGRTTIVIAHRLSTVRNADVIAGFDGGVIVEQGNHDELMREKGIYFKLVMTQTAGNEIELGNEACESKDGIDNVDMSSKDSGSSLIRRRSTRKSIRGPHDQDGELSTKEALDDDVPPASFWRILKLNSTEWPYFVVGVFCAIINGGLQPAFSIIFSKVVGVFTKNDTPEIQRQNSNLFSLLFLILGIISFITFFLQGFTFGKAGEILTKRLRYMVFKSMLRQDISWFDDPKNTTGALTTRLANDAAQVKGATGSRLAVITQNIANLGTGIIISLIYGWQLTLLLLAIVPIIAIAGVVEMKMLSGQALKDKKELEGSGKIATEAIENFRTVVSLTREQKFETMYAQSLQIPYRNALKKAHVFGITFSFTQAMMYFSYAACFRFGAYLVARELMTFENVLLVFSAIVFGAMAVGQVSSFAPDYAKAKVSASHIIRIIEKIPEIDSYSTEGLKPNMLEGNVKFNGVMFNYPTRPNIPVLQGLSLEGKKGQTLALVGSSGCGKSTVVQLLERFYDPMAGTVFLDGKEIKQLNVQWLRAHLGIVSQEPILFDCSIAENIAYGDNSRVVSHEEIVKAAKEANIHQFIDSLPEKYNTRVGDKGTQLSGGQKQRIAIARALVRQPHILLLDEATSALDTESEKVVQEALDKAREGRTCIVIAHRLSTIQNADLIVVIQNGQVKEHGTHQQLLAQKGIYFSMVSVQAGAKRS

Row | Activity [1] | Activity [2] | Activity [3] | Activity [4] | Compound
1 | inhibitor [+] | inhibitor [+] | – | – | CN1CCCC(n2nc(Cc3ccc(Cl)cc3)c3ccccc3c2=O)CC1 (centres undefined) [AZELASTINE]
2 | – | – | inhibitor [+] | inhibitor [+] | O=c1c2ccccc2c(Cc2ccc(F)cc2)nn1C1CCCN(CCc2ccccc2)CC1 (centres undefined) [FLEZELASTINE]
